experiment: recombinant barcode read abundance after kanamycin selection (control-corrected) (log10(CPM+1)); higher = more efficient recombination; sequences stand for … in AGTGCAGAGAAAATCGGCCAGTTTTCTCTGCCTGCAGTCCGCATGCCGT…AGATTTATGCAGCGGACTGCCTTTCTCCCAAAGTGATAAACCGGACAGTATCATGGACCGGTTTTCCCGGTAATCCGTATTTGCAAGGTTGGTTTCACT; site = the 11-nt target
Method in brief: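 Targets and IS621 bridge RNA target-binding loops were paired in oligos, each with a promoter, a barcode and the J23119-driven first 104 bridge RNA bases. A vector carrying the remaining 73 bp and a T7-inducible recombinase received these by Gibson cloning, and the pool was co-electroporated into E. coli with a donor plasmid. Duplicate plates contained chloramphenicol/ampicillin LB agar (control) or chloramphenicol/ampicillin/kanamycin with 0.1 mM IPTG. Recombination efficiency comes from averaged, control-corrected counts per million of recombinant-junction barcodes, reported as log10(CPM+1).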
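Also: IS621 recombinase and bridge RNA in Escherichia coli cells.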

| Sequence | recombinant barcode read abundance (log10) |
| --- | --- |
| CGCCAGCCTTGGGTTCTAACCTGTTGCCT (site CGCCAGCCTAG) | 0.0113 |
| ACTTAGTCTTGGGTTCTAACCTGTTGCTC (site ACTTAGTCTGA) | 1.04 |
| ACTCAGACTTGGGTTCTAACCTGTTGCAC (site ACTCAGACTGT) | 1.9 |
| CATCAGCCTTGGGTTCTAACCTGTTGCCT (site CATCAGCCTAG) | 0.547 |
| CGTAAATCTTGGGTTCTAACCTGTTGCCT (site CGGAAATCTAG) | 0.15 |
| GGGTTTGCTTGGGTTCTAACCTGTTGCCT (site GGGTTTGCTAG) | 1.14 |
| TGGACCACTTGGGTTCTAACCTGTTGCCT (site TGGACCACTAG) | 0.765 |
| GACCGGACTTGGGTTCTAACCTGTTGCGT (site GAGTGGACTAC) | 0.0356 |
| AGTAACCCTTGGGTTCTAACCTGTTGCCT (site AATAACCCTAG) | 0.0627 |
| CTATGTGCTTGGGTTCTAACCTGTTGCGT (site CTATGTGCTAT) | 0.298 |
| ACTAGTCCTTGGGTTCTAACCTGTTGCAT (site ACTAGTCCTAG) | 0.0896 |
| TTGCGGCCTTGGGTTCTAACCTGTTGCAG (site TTGCGGCCTCT) | 1.78 |
| GACCGGACTTGGGTTCTAACCTGTTGCGT (site GACCGGACTAC) | 2.44 |
| TTCTACCCTTGGGTTCTAACCTGTTGCCT (site TCCTACCCTAG) | 0.149 |
| TCCTAAGCTTGGGTTCTAACCTGTTGCTA (site TCCGAAGCTTA) | 0.372 |
| GGTCAAACTTGGGTTCTAACCTGTTGCCT (site GGTCGAACTAG) | 0.109 |
| GCTTCCACTTGGGTTCTAACCTGTTGCCT (site GCTTCCACTAG) | 0.381 |
| GTTACCGCTTGGGTTCTAACCTGTTGCCT (site GTAACCGCTAG) | 0.602 |
| GAGGGTCCTTGGGTTCTAACCTGTTGCCT (site GAGGGTCCTAG) | 2.56 |
| GTACCTACTTGGGTTCTAACCTGTTGCTA (site CGACCTACTTA) | 0.0562 |
| GACTCATCTTGGGTTCTAACCTGTTGCGG (site GACTTGTCTCC) | 0.11 |
| GGGACAACTTGGGTTCTAACCTGTTGCCT (site GGGACAACTAG) | 0.0953 |

| Sequence | recombinant barcode read abundance (log10) |
| --- | --- |
| TGCTGATCTTGGGTTCTAACCTGTTGCCT (site AGCTGATCTAG) | 0.114 |
| AGTAAGCCTTGGGTTCTAACCTGTTGCCT (site AGTGAGCCTAG) | 0.187 |
| AGGAGCCCTTGGGTTCTAACCTGTTGCTT (site AGGAGCCCTCA) | 0.0777 |
| TAGTACCCTTGGGTTCTAACCTGTTGCAT (site TAGTACCCTGT) | 0.0568 |
| GTAAGTACTTGGGTTCTAACCTGTTGCTT (site GTAAGAACTAA) | 0.169 |
| GAGGCTCCTTGGGTTCTAACCTGTTGCGT (site GAAGCTCCTAC) | 1.54 |
| GAGGTATCTTGGGTTCTAACCTGTTGCCA (site GAGGTATCTAC) | 0.038 |
| TAGGATACTTGGGTTCTAACCTGTTGCAT (site TAGGATACTGT) | 0.0987 |
| GACACCTCTTGGGTTCTAACCTGTTGCTT (site GACACCTCTAA) | 1.03 |
| ACTAGTCCTTGGGTTCTAACCTGTTGCAT (site ACTAGTCCTAT) | 1.29 |
| ACTGATGCTTGGGTTCTAACCTGTTGCCT (site ACTGATACTAG) | 1.08 |
| TAGTTAACTTGGGTTCTAACCTGTTGCCA (site TAGTTCACTTG) | 0.0909 |
| TCCTGTACTTGGGTTCTAACCTGTTGCCT (site TCCTGTACTAG) | 0.239 |
| GTAATGTCTTGGGTTCTAACCTGTTGCCT (site GTAATGTCTAG) | 2.04 |
| TCTACATCTTGGGTTCTAACCTGTTGCCT (site TCTACATCTAG) | 0.0728 |
| GACTTGCCTTGGGTTCTAACCTGTTGCCT (site GACTTGTCTAG) | 0.217 |
| CACCAGCCTTGGGTTCTAACCTGTTGCAT (site CACCAGCCTAT) | 1.98 |
| GACACGCCTTGGGTTCTAACCTGTTGCTT (site GACACGCCTAC) | 0.0239 |
| CTGCTCCCTTGGGTTCTAACCTGTTGCGG (site CTGGTCCCTCC) | 0.306 |
| TGACGTCCTTGGGTTCTAACCTGTTGCGT (site TGACGTCCTAA) | 0.0894 |
| CACTTCCCTTGGGTTCTAACCTGTTGCCT (site CACTTCCCTAG) | 0.924 |
| TTGACTGCTTGGGTTCTAACCTGTTGCCT (site TTGAGTGCTAG) | 0.0596 |

| Sequence | recombinant barcode read abundance (log10) |
| --- | --- |
| GGGACTTCTTGGGTTCTAACCTGTTGCAT (site GGGTCTTCTAT) | 0.164 |
| CTTTCCTCTTGGGTTCTAACCTGTTGCTT (site CTTTCCTCTAA) | 0.92 |
| GTCCAGTCTTGGGTTCTAACCTGTTGCGT (site GTCCACTCTAA) | 0.0578 |
| TACAGCCCTTGGGTTCTAACCTGTTGCCT (site TTCAGCCCTAG) | 0.183 |
| TAACGGCCTTGGGTTCTAACCTGTTGCCT (site TACCGGCCTAG) | 0.504 |
| CAACCGACTTGGGTTCTAACCTGTTGCCT (site CAACCGACTAG) | 1.61 |
| ACAAGCCCTTGGGTTCTAACCTGTTGCCT (site ACAAGCCCTAG) | 0.643 |
| CATCGTACTTGGGTTCTAACCTGTTGCAT (site CCTCGGACTAT) | 0.0241 |
| AAGAGTCCTTGGGTTCTAACCTGTTGCGT (site AAGAGTCCTAC) | 2.55 |
| CTTCAAGCTTGGGTTCTAACCTGTTGCCT (site CTCCAAGCTAG) | 0.257 |
| CATTAGACTTGGGTTCTAACCTGTTGCCT (site GATTAGACTAG) | 0.195 |
| CACCAGCCTTGGGTTCTAACCTGTTGCAT (site AGGTCCGCTTA) | 0.167 |
| CCTTGCCCTTGGGTTCTAACCTGTTGCCT (site CCTTGCCCTAG) | 0.667 |
| ATCTATTCTTGGGTTCTAACCTGTTGCCT (site ATCTATTCTAG) | 0.111 |
| ACCCCTCCTTGGGTTCTAACCTGTTGCCA (site ACGCCTCCTTG) | 0.228 |
| ACCATCACTTGGGTTCTAACCTGTTGCCT (site ACCATCACTAG) | 0.79 |
| TTGGACGCTTGGGTTCTAACCTGTTGCCT (site TTGGGCGCTAG) | 0.838 |
| GGGTCCACTTGGGTTCTAACCTGTTGCGG (site GGGTCCACTTG) | 0.143 |
| CCAGAAGCTTGGGTTCTAACCTGTTGCCT (site CCAGAAGCTAG) | 0.179 |
| GAGGGCCCTTGGGTTCTAACCTGTTGCAG (site GAGGGCCCTCG) | 1.4 |
| CAAACACCTTGGGTTCTAACCTGTTGCTT (site CAAACACCTAA) | 0.712 |
| GAGCTACCTTGGGTTCTAACCTGTTGCCA (site GAGCTACCTTG) | 1.11 |

| Sequence | recombinant barcode read abundance (log10) |
| --- | --- |
| CGGTACCCTTGGGTTCTAACCTGTTGCGG (site CGGTACCCTCC) | 3.11 |
| TTGTGTTCTTGGGTTCTAACCTGTTGCTT (site TTGTACTCTAA) | 0.00637 |
| CTCCGACCTTGGGTTCTAACCTGTTGCTT (site CTCCGACCTAA) | 1.67 |
| GAACGATCTTGGGTTCTAACCTGTTGCCT (site GAACGATCTAG) | 0.397 |
| ACGCAGTCTTGGGTTCTAACCTGTTGCCT (site ACGCAGTCTAG) | 0.798 |
| CTGACTTCTTGGGTTCTAACCTGTTGCCT (site CGGACTTCTAG) | 0.079 |
| CTGTGTCCTTGGGTTCTAACCTGTTGCGG (site CTGTGTCCTCC) | 1.84 |
| TGCTGATCTTGGGTTCTAACCTGTTGCCT (site CGCTGATCTAG) | 0.159 |
| AACATCACTTGGGTTCTAACCTGTTGCCG (site AGCATCACTAG) | 0 |
| CTTCAAGCTTGGGTTCTAACCTGTTGCCT (site CTTCAAGCTAG) | 0.983 |
| GTAGGGTCTTGGGTTCTAACCTGTTGCCT (site GTAGGGTCTAG) | 2.41 |
| CCGCTGTCTTGGGTTCTAACCTGTTGCCT (site CCTCTGGCTAG) | 0.167 |
| CTAGTAACTTGGGTTCTAACCTGTTGCCA (site ACGCGTGCTCC) | 0.0245 |
| CAAGTGCCTTGGGTTCTAACCTGTTGCCT (site CAAGTTCCTAG) | 0.064 |
| TGACGTCCTTGGGTTCTAACCTGTTGCCT (site TGACGTCCTAA) | 0.455 |
| GTGTCTCCTTGGGTTCTAACCTGTTGCCT (site CTGTCTCCTAG) | 0.103 |
| TCGAATTCTTGGGTTCTAACCTGTTGCCT (site TCGATGTCTAG) | 0.0943 |
| ACAGTAGCTTGGGTTCTAACCTGTTGCGG (site ACAGTAGCTCG) | 0.248 |
| TAGCATGCTTGGGTTCTAACCTGTTGCAG (site TAGCATGCTCT) | 1.44 |
| GGGCCTACTTGGGTTCTAACCTGTTGCTA (site GGGCCTACTGA) | 0.482 |
